Data on 24 compounds can be found in patent publication US8445503B2, “Inhibitors of polo-like kinase” (Elan Pharmaceuticals, Inc., priority 2009, dated 2013).

Type in all cases: biochemical
One test concerns the target GST-PLK1 (Homo sapiens, UniProt P53350). The experiment in a line: PLK TR-FRET peptide assay, PLK1. Particulars: read-out: Plk1 IC50.
A further test has as its target T1, GST-PLK2 (Homo sapiens, UniProt Q9NYY3).
T1 construct: purchased CarnaBio
The experiment in a line: PLK TR-FRET peptide assay, PLK2. To be noted: for IC50: PLK TR-FRET peptide assay, GST-PLK2, read-out: Plk2 IC50; for PLK2 activity relative to the opposite enantiomer / other isomer: comparison of resolved enantiomers, used to assign absolute configuration.

The target in another test is T2, GST-PLK3 (Homo sapiens, UniProt Q9H4B4).
T2 construct: purchased CarnaBio
The experiment in a line: PLK TR-FRET peptide assay, PLK3. Particulars: PLK TR-FRET peptide assay, GST-PLK3; read-out: Plk3 IC50.

T1 sequence (Q9NYY3 whole entry): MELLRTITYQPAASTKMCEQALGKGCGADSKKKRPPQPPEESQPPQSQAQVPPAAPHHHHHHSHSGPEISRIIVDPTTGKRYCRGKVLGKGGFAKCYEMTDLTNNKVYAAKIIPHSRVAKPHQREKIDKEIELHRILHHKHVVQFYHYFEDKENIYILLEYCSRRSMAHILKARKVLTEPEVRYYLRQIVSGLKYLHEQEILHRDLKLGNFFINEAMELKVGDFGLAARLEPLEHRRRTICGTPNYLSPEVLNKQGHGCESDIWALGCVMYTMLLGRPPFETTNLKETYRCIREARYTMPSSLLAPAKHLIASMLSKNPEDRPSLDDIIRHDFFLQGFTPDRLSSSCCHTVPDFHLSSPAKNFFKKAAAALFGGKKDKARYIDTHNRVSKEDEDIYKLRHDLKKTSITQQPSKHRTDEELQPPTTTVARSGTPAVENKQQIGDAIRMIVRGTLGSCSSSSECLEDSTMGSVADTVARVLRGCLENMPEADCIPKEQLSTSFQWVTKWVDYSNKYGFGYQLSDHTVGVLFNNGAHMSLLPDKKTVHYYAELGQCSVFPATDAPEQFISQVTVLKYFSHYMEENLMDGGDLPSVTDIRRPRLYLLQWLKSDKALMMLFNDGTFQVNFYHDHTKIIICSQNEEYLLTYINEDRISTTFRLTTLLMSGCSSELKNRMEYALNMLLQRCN
T2 sequence (Q9H4B4 whole entry): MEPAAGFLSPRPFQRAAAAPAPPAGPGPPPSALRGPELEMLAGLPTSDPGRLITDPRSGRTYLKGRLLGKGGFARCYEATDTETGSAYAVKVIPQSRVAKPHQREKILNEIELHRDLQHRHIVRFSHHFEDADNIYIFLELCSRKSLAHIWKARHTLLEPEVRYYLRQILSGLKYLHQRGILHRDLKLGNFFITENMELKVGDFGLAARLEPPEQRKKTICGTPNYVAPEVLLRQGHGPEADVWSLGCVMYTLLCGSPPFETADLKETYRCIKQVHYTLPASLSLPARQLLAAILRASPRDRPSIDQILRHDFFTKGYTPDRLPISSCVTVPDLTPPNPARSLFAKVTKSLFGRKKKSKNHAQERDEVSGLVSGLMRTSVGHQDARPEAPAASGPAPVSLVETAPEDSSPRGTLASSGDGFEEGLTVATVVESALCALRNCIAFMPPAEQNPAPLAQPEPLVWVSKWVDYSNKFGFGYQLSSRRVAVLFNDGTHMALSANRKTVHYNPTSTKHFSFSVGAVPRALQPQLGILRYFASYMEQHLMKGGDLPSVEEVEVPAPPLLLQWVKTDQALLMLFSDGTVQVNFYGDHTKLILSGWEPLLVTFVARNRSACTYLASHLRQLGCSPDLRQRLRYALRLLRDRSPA
Chain of GST-PLK1 (P53350 whole entry): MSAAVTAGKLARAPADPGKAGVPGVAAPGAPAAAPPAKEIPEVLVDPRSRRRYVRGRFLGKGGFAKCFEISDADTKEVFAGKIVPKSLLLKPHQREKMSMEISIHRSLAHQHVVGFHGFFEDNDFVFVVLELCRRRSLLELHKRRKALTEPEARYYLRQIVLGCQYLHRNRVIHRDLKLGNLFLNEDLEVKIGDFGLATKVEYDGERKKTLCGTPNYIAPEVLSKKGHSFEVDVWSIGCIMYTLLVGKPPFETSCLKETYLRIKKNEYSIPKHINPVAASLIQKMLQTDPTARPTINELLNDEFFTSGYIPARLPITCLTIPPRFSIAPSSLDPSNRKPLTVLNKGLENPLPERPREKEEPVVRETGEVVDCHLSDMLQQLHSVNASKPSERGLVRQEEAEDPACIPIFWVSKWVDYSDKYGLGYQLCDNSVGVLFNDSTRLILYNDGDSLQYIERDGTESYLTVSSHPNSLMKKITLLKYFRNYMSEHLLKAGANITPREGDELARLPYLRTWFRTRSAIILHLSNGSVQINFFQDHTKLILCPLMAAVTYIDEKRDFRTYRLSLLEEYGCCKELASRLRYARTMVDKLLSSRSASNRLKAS

With `CC[C@]12COCCN1c1nc(-c3cn[nH]c3-c3nccs3)ncc1N(C)C2=O` [Example 345, (R)-6a-ethyl-5-methyl-2-(5-(thiazol-2-yl)-1H-pyrazol-4-yl)-6a,7,9,10-tetrahydro-[1,4]oxazino[3,4-h]pteridin-6(5H)-one], the IC50 was above 50 µM on GST-PLK1, 10 to 50 µM on GST-PLK2 and above 50 µM at GST-PLK3.
For the compound `CC[C@@]12COCCN1c1nc(-c3snnc3-c3ccccc3)ncc1N(C)C2=O` [Example 368, (S)-6a-ethyl-5-methyl-2-(4-phenyl-1,2,3-thiadiazol-5-yl)-6a,7,9,10-tetrahydro-[1,4]oxazino[3,4-h]pteridin-6(5H)-one], the figures for the IC50 on GST-PLK1, on GST-PLK2 and at GST-PLK3 were above 50 µM, below 1 µM and 1 to 10 µM, respectively. Moreover, on GST-PLK2, the “PLK2 activity relative to the opposite enantiomer / other isomer” value is “more active compound”.
For the compound `CC[C@]12COCCN1c1nc(-c3snnc3-c3ccccc3)ncc1N(C)C2=O` [Example 369, (R)-6a-ethyl-5-methyl-2-(4-phenyl-1,2,3-thiadiazol-5-yl)-6a,7,9,10-tetrahydro-[1,4]oxazino[3,4-h]pteridin-6(5H)-one], the IC50 at GST-PLK1, on GST-PLK2 and at GST-PLK3 was above 50 µM in each case.
In the case of `CC[C@@]12COCCN1c1nc(-c3[nH]nnc3-c3ccccc3)ncc1N(C)C2=O` [Example 373, (S)-6a-ethyl-5-methyl-2-(4-phenyl-1H-1,2,3-triazol-5-yl)-6a,7,9,10-tetrahydro-[1,4]oxazino[3,4-h]pteridin-6(5H)-one], the results for the IC50 on GST-PLK1, at GST-PLK2 and on GST-PLK3 were 10 to 50 µM, 1 to 10 µM and 1 to 10 µM, respectively.
As for `CC[C@@]12CN(C)CCN1c1nc(-n3ccnc3-c3ccccc3)ncc1N(C)C2=O` [Example 374, (S)-6a-ethyl-5,8-dimethyl-2-(2-phenyl-1H-imidazol-1-yl)-'7,8,9,10-tetrahydro-5H-pyrazino[2,1-h]pteridin-6(6aH)-one], the IC50 is above 50 µM at GST-PLK1, below 1 µM at GST-PLK2 and 10 to 50 µM on GST-PLK3. Also, the “PLK2 activity relative to the opposite enantiomer / other isomer” value on GST-PLK2 is listed as “more active compound”.
As to `CC[C@]12CN(C)CCN1c1nc(-n3ccnc3-c3ccccc3)ncc1N(C)C2=O` [Example 375, (R)-6a-ethyl-5,8-dimethyl-2-(2-phenyl-1H-imidazol-1-yl)-7,8,9,10-tetrahydro-5H-pyrazino[2,1-h]pteridin-6(6aH)-one], the IC50 at GST-PLK1 is above 50 µM; at GST-PLK2, 10 to 50 µM; on GST-PLK3, above 50 µM.
For `CC[C@@]12COCCN1c1nc(-n3ccnc3-c3ccc(F)cc3F)ncc1N(C)C2=O` [Example 376, (S)-2-(2-(2,4-difluorophenyl)-1H-imidazol-1-yl)-6a-ethyl-5-methyl-6a,7,9,10-tetrahydro-[1,4]oxazino[3,4-h]pteridin-6(5H)-one], the IC50 on GST-PLK1 is 10 to 50 µM; on GST-PLK2, below 1 µM; at GST-PLK3 it was 10 to 50 µM. Also, the “PLK2 activity relative to the opposite enantiomer / other isomer” value at GST-PLK2 is on record as “more active compound”.
Consider `CC[C@]12COCCN1c1nc(-n3ccnc3-c3ccc(F)cc3F)ncc1N(C)C2=O` [Example 377, (R)-2-(2-(2,4-difluorophenyl)-1H-imidazol-1-yl)-6a-ethyl-5-methyl-6a,7,9,10-tetrahydro-[1,4]oxazino[3,4-h]pteridin-6(5H)-one], for which the IC50 at GST-PLK1 is above 50 µM; on GST-PLK2, 10 to 50 µM; on GST-PLK3 it was above 50 µM.
For the compound `CC[C@@]12COCCN1c1nc(-n3ccnc3-c3ccc(F)cn3)ncc1N(C)C2=O` [Example 380, (S)-6a-ethyl-2-(2-(5-fluoropyridin-2-yl)-1H-imidazol-1-yl)-5-methyl-6a,7,9,10-tetrahydro-[1,4]oxazino[3,4-h]pteridin-6(5H)-one], the IC50 is above 50 µM at GST-PLK1, below 1 µM at GST-PLK2 and above 50 µM at GST-PLK3. Also, the “PLK2 activity relative to the opposite enantiomer / other isomer” value at GST-PLK2 is “more active compound”.
`CC[C@]12COCCN1c1nc(-n3ccnc3-c3ccc(F)cn3)ncc1N(C)C2=O` [Example 381, (R)-6a-ethyl-2-(2-(5-fluoropyridin-2-yl)-1H-imidazol-1-yl)-5-methyl-6a,7,9,10-tetrahydro-[1,4]oxazino[3,4-h]pteridin-6(5H)-one]: the IC50 on GST-PLK1, on GST-PLK2 and at GST-PLK3 was above 50 µM each time.
`CC[C@]12COCCN1c1nc(-n3ccnc3-c3nccs3)ncc1N(C)C2=O` [Example 386, (R)-6a-ethyl-5-methyl-2-(2-(thiazol-2-yl)-1H-imidazol-1-yl)-6a,7,9,10-tetrahydro-[1,4]oxazino[3,4-h]pteridin-6(5H)-one]: the IC50 on GST-PLK1, on GST-PLK2 and on GST-PLK3 was above 50 µM throughout.
With `CC[C@@]12COCCN1c1nc(-n3ccnc3-c3nccs3)ncc1N(C)C2=O` [Example 387, (S)-6a-ethyl-5-methyl-2-(2-(thiazol-2-yl)-1H-imidazol-1-yl)-6a,7,9,10-tetrahydro-[1,4]oxazino[3,4-h]pteridin-6(5H)-one], the results for the IC50 on GST-PLK1, on GST-PLK2 and on GST-PLK3 were above 50 µM, below 1 µM and above 50 µM, respectively. In addition, on GST-PLK2, the “PLK2 activity relative to the opposite enantiomer / other isomer” value was “more active compound”.
Take `CC[C@@]12COCCN1c1nc(-c3ccncc3-c3ccccc3)ncc1N(C)C2=O` [Example 394, (S)-6a-ethyl-5-methyl-2-(3-phenylpyridin-4-yl)-6a,7,9,10-tetrahydro-[1,4]oxazino[3,4-h]pteridin-6(5H)-one]: the concentration for half-maximal inhibition (IC50) is 1 to 10 µM on GST-PLK1, below 1 µM on GST-PLK2 and 1 to 10 µM on GST-PLK3. Moreover, the “PLK2 activity relative to the opposite enantiomer / other isomer” value at GST-PLK2 is on record as “more active compound”.
`CC[C@@]12COCCN1c1nc(-c3ccncc3-c3ccccc3)ncc1N(C)C2=O` [Example 395]: the values for the concentration for half-maximal inhibition (IC50) at GST-PLK1, on GST-PLK2 and at GST-PLK3 were below 1 µM, below 1 µM and 1 to 10 µM, respectively.
With `CC[C@]12COCCN1c1nc(-c3ccncc3-c3ccccc3)ncc1N(C)C2=O` [Example 396, (R)-6a-ethyl-5-methyl-2-(3-phenylpyridin-4-yl)-6a,7,9,10-tetrahydro-[1,4]oxazino[3,4-h]pteridin-6(5H)-one], the IC50 at GST-PLK1, at GST-PLK2 and on GST-PLK3 was above 50 µM throughout.
With `CC[C@@]12COCCN1c1nc(-c3snnc3-c3ccc(F)cc3F)ncc1N(C)C2=O` [Example 397, (S)-2-(4-(2,4-difluorophenyl)-1,2,3-thiadiazol-5-yl)-6a-ethyl-5-methyl-6a,7,9,10-tetrahydro-[1,4]oxazino[3,4-h]pteridin-6(5H)-one], the results for the IC50 at GST-PLK1, at GST-PLK2 and at GST-PLK3 were 10 to 50 µM, below 1 µM and 10 to 50 µM, respectively. Moreover, the “PLK2 activity relative to the opposite enantiomer / other isomer” value at GST-PLK2 is on record as “more active compound”.
Turning to `CC[C@]12COCCN1c1nc(-c3snnc3-c3ccc(F)cc3F)ncc1N(C)C2=O` [Example 398, (R)-2-(4-(2,4-difluorophenyl)-1,2,3-thiadiazol-5-yl)-6a-ethyl-5-methyl-6a,7,9,10-tetrahydro-[1,4]oxazino[3,4-h]pteridin-6(5H)-one], the IC50 at GST-PLK1, on GST-PLK2 and at GST-PLK3 was above 50 µM each time.
For the compound `CCC1C(=O)N(C)c2cnc(-c3cn[nH]c3-c3nccs3)nc2N1c1cnn(CC2CC2)c1` (stereo not drawn) [Example 400, 8-(1-(cyclopropylmethyl)-1H-pyrazol-4-yl)-7-ethyl-5-methyl-2-(5-(thiazol-2-yl)-1H-pyrazol-4-yl)-7,8-dihydropteridin-6(5H)-one], the IC50 at GST-PLK1 was 1 to 10 µM; on GST-PLK2 it was below 1 µM; at GST-PLK3, 1 to 10 µM.
For `CC[C@@]12COCCN1c1nc(-c3cccnc3-c3ccccc3)ncc1N(C)C2=O` [Example 403, (S)-6a-ethyl-5-methyl-2-(2-phenylpyridin-3-yl)-6a,7,9,10-tetrahydro-[1,4]oxazino[3,4-h]pteridin-6(5H)-one], the half-maximal inhibitory concentration (IC50) on GST-PLK1 was 10 to 50 µM; at GST-PLK2, below 1 µM; on GST-PLK3, 1 to 10 µM.
For `CC[C@]12COCCN1c1nc(-c3cccnc3-c3ccccc3)ncc1N(C)C2=O` [Example 404], the concentration for half-maximal inhibition (IC50) on GST-PLK1, on GST-PLK2 and on GST-PLK3 was above 50 µM in each case.
In the case of `CC[C@@H]1C(=O)N(C)c2cnc(-n3ccnc3-c3ccc(F)cc3)nc2N1c1ccn(C)n1` [Example 407, (R)-7-ethyl-2-(2-(4-fluorophenyl)-1H-imidazol-1-yl)-5-methyl-8-(1-methyl-1H-pyrazol-3-yl)-7,8-dihydropteridin-6(5H)-one], the half-maximal inhibitory concentration (IC50) on GST-PLK1 is 1 to 10 µM; at GST-PLK2, below 1 µM; at GST-PLK3 it was 1 to 10 µM. For the same compound, the “PLK2 activity relative to the opposite enantiomer / other isomer” value at GST-PLK2 is recorded as “more active compound”.
`CC[C@H]1C(=O)N(C)c2cnc(-n3ccnc3-c3ccc(F)cc3)nc2N1c1ccn(C)n1` [Example 408, (S)-7-ethyl-2-(2-(4-fluorophenyl)-1H-imidazol-1-yl)-5-methyl-8-(1-methyl-1H-pyrazol-3-yl)-7,8-dihydropteridin-6(5H)-one]: the half-maximal inhibitory concentration (IC50) was above 50 µM on GST-PLK1, 1 to 10 µM on GST-PLK2 and above 50 µM at GST-PLK3.
With `CC[C@@H]1C(=O)N(C)c2cnc(-n3ccnc3-c3ccccc3)nc2N1c1cnn(C)c1` [Example 409, (R)-7-ethyl-5-methyl-8-(1-methyl-1H-pyrazol-4-yl)-2-(2-phenyl-1H-imidazol-1-yl)-7,8-dihydropteridin-6(5H)-one], the half-inhibitory concentration (IC50) on GST-PLK1 was below 1 µM; at GST-PLK2, below 1 µM; on GST-PLK3 it was 1 to 10 µM. Moreover, the “PLK2 activity relative to the opposite enantiomer / other isomer” value at GST-PLK2 is on record as “more active compound”.
For `CC[C@H]1C(=O)N(C)c2cnc(-n3ccnc3-c3ccccc3)nc2N1c1cnn(C)c1` [Example 410, (S)-7-ethyl-5-methyl-8-(1-methyl-1-pyrazol-4-yl)-2-(2-phenyl-1H-imidazol-1-yl)-7,8-dihydropteridin-6(5H)-one], the IC50 at GST-PLK1, on GST-PLK2 and on GST-PLK3 was above 50 µM in each case.
